Laboratory results published in US4537717A.
In brackets after ≈: the same amount, converted by molar mass.

What was measured:
[1] = system: Staphylococcus aureus ATCC 6738P; experiment: agar-plate disc-diffusion test; type: cell-based; conditions: suspended in water at 1 mg/ml; 7 mm disc; 24-48 hours at 25-37° C.
[2] = system: Micrococcus luteus ATCC 9341; experiment: agar-plate disc-diffusion test; type: cell-based; conditions: suspended in water at 1 mg/ml; 7 mm disc; 24-48 hours at 25-37° C.
[3] = system: Staphylococcus aureus X1.1; type: cell-based; conditions: agar dilution; 2, 5, 17, 22 median of three tests; paired values two experiments
[4] = system: Staphylococcus aureus V41; type: cell-based; conditions: penicillin-resistant strain; agar dilution; 2, 5, 17, 22 median of three tests; paired values two experiments
[5] = system: Staphylococcus aureus X400; type: cell-based; conditions: methicillin-resistant strain; agar dilution; 2, 5, 17, 22 median of three tests; paired values two experiments
[6] = system: Staphylococcus epidermidis EPI1; type: cell-based; conditions: agar dilution; 2, 5, 17, 22 median of three tests; paired values two experiments
[7] = system: Staphylococcus epidermidis EPI2; type: cell-based; conditions: agar dilution; 2, 5, 17, 22 median of three tests; paired values two experiments
[8] = system: Streptococcus pyogenes C203; type: cell-based; conditions: agar dilution; 2, 5, 17, 22 median of three tests; paired values two experiments
[9] = system: Streptococcus pneumoniae Park I; type: cell-based; conditions: agar dilution; 2, 5, 17, 22 median of three tests; paired values two experiments
[10] = system: Streptococcus pneumoniae Group D X66; type: cell-based; conditions: agar dilution; 2, 5, 17, 22 median of three tests; paired values two experiments
[11] = system: Streptococcus Group 9960; type: cell-based, Streptococcus pneumoniae; conditions: agar dilution; 2, 5, 17, 22 median of three tests; paired values two experiments
[12] = system: Staphylococcus aureus; experiment: in vivo activity against experimental bacterial infection (ED50); conditions: mice; two doses subcutaneously; dose protecting fifty percent of test animals
[13] = system: Streptococcus pyogenes; experiment: as above; conditions: mice, dose protecting fifty percent of test animals; for ED50 Streptococcus pyogenes Oral: two doses orally; for ED50 Streptococcus pyogenes Subcutaneous: two doses subcutaneously
[14] = toxicity test (LD50); conditions: mouse, in vivo, iv, mice; administered intravenously
[15] = system: Bacillus subtilis ATCC 6633; experiment: agar-plate disc-diffusion test; conditions: 7 mm disc, 24-48 hours at 25-37° C.; for Size of Zone of Inhibition (mm) B. subtilis ATCC 6633, grown on minimal nutrient agar: 1 mg/ml; for Size of Zone of Inhibition (mm) Bacillus subtilis ATCC 6633: suspended in water at 1 mg/ml
Procedure: ^a Compounds were suspended in water at a concentration of 1 mg/ml; a
7 mm disc was dipped into the suspension and then placed on the agar
surface; incubation: 24-48 hours at 25-37° C.
^b Grown on minimal nutrient agar

Row | Structure (SMILES) | Size of Zone of Inhibition (mm) Staphylococcus aureus ATCC 6738P [1] [mm] | Size of Zone of Inhibition (mm) Micrococcus luteus ATCC 9341 [2] [mm] | MIC Staphylococcus aureus X1.1 [3] [µg/mL] | MIC Staphylococcus aureus V41 [4] [µg/mL] | MIC Staphylococcus aureus X400 [5] [µg/mL] | MIC Staphylococcus epidermidis EPI1 [6] [µg/mL] | MIC Staphylococcus epidermidis EPI2 [7] [µg/mL] | MIC Streptococcus pyogenes C203 [8] [µg/mL] | MIC Streptococcus pneumoniae Park I [9] [µg/mL] | MIC Streptococcus pneumoniae Group D X66 [10] [µg/mL] | MIC Streptococcus pneumoniae Group 9960 [11] [µg/mL] | ED50 Staphylococcus aureus Subcutaneous [12] [mg/kg × 2] | ED50 Streptococcus pyogenes Oral [13] [mg/kg × 2] | ED50 Streptococcus pyogenes Subcutaneous [13] [mg/kg × 2] | LD50 [14] [mg/kg] | Size of Zone of Inhibition (mm) B. subtilis ATCC 6633, grown on minimal nutrient agar [15] [mm] | Size of Zone of Inhibition (mm) Bacillus subtilis ATCC 6633 [15] [mm]
1 | CCCCCCCCCCCCC(=O)N[C@@H](Cc1c[nH]c2ccccc12)C(=O)N[C@@H](CC(N)=O)C(=O)N[C@@H](CC(=O)O)C(=O)N[C@@H]1C(=O)NCC(=O)N[C@@H](CCCN)C(=O)N[C@@H](CC(=O)O)C(=O)N[C@H](C)C(=O)N[C@@H](CC(=O)O)C(=O)NCC(=O)N[C@H](CO)C(=O)N[C@@H]([C@H](C)CC(=O)O)C(=O)N[C@@H](CC(=O)c2ccccc2N)C(=O)O[C@@H]1C [Compound 7] | 21 | 19 | 0.125 (≈ 0.0752 µM) | 0.125 (≈ 0.0752 µM) | 0.5 (≈ 0.301 µM) | 0.5 (≈ 0.301 µM) | 0.5 (≈ 0.301 µM) | 0.25 (≈ 0.15 µM) | 0.25 (≈ 0.15 µM) | 0.03 (≈ 0.018 µM) | 32 (≈ 19.2 µM) | 0.54 | 45 | 0.046 | 112 | 29 | 17
2 | CCCCCCCCCCCCCCC(=O)N[C@@H](Cc1c[nH]c2ccccc12)C(=O)N[C@@H](CC(N)=O)C(=O)N[C@@H](CC(=O)O)C(=O)N[C@@H]1C(=O)NCC(=O)N[C@@H](CCCN)C(=O)N[C@@H](CC(=O)O)C(=O)N[C@H](C)C(=O)N[C@@H](CC(=O)O)C(=O)NCC(=O)N[C@H](CO)C(=O)N[C@@H]([C@H](C)CC(=O)O)C(=O)N[C@@H](CC(=O)c2ccccc2N)C(=O)O[C@@H]1C [Compound 9] | 20 | 19 | 1 (≈ 0.591 µM) | 1 (≈ 0.591 µM) | 2 (≈ 1.18 µM) | 2 (≈ 1.18 µM) | 4 (≈ 2.37 µM) | 1 (≈ 0.591 µM) | 0.06 (≈ 0.0355 µM) | 2 (≈ 1.18 µM) | 0.25 (≈ 0.148 µM) | 8.3 | > 200 | – | 56.2 | 24 | 19
3 | CCCCCCCCCCCCCCCC(=O)N[C@@H](Cc1c[nH]c2ccccc12)C(=O)N[C@@H](CC(N)=O)C(=O)N[C@@H](CC(=O)O)C(=O)N[C@@H]1C(=O)NCC(=O)N[C@@H](CCCN)C(=O)N[C@@H](CC(=O)O)C(=O)N[C@H](C)C(=O)N[C@@H](CC(=O)O)C(=O)NCC(=O)N[C@H](CO)C(=O)N[C@@H]([C@H](C)CC(=O)O)C(=O)N[C@@H](CC(=O)c2ccccc2N)C(=O)O[C@@H]1C [Compound 10] | 19 | 17 | 1 (≈ 0.587 µM) | 1 (≈ 0.587 µM) | 2 (≈ 1.17 µM) | 2 (≈ 1.17 µM) | 2 (≈ 1.17 µM) | 1 (≈ 0.587 µM) | 0.06 (≈ 0.0352 µM) | 2 (≈ 1.17 µM) | 0.25 (≈ 0.147 µM) | > 1.1 | > 200 | 0.18 | 50 | 23 | 17
4 | C=CCCCCCCCCC(=O)N[C@@H](Cc1c[nH]c2ccccc12)C(=O)N[C@@H](CC(N)=O)C(=O)N[C@@H](CC(=O)O)C(=O)N[C@@H]1C(=O)NCC(=O)N[C@@H](CCCN)C(=O)N[C@@H](CC(=O)O)C(=O)N[C@H](C)C(=O)N[C@@H](CC(=O)O)C(=O)NCC(=O)N[C@H](CO)C(=O)N[C@@H]([C@H](C)CC(=O)O)C(=O)N[C@@H](CC(=O)c2ccccc2N)C(=O)O[C@@H]1C [Compound 11] | 21 | 20 | 0.5 (≈ 0.306 µM) | 0.5 (≈ 0.306 µM) | 0.5 (≈ 0.306 µM) | 1 (≈ 0.612 µM) | 1 (≈ 0.612 µM) | 0.5 (≈ 0.306 µM) | 0.25 (≈ 0.153 µM) | 1 (≈ 0.612 µM) | 0.5 (≈ 0.306 µM) | 0.93 | 138 | 0.068 | ≥ 500 | 25 | 17
5 | CCCCC=CCCCCCCCC(=O)N[C@@H](Cc1c[nH]c2ccccc12)C(=O)N[C@@H](CC(N)=O)C(=O)N[C@@H](CC(=O)O)C(=O)N[C@@H]1C(=O)NCC(=O)N[C@@H](CCCN)C(=O)N[C@@H](CC(=O)O)C(=O)N[C@H](C)C(=O)N[C@@H](CC(=O)O)C(=O)NCC(=O)N[C@H](CO)C(=O)N[C@@H]([C@H](C)CC(=O)O)C(=O)N[C@@H](CC(=O)c2ccccc2N)C(=O)O[C@@H]1C [Compound 12] | 22 | 20 | 1 (≈ 0.597 µM) | 1 (≈ 0.597 µM) | 2 (≈ 1.19 µM) | 2 (≈ 1.19 µM) | 2 (≈ 1.19 µM) | 0.5 (≈ 0.299 µM) | 0.5 (≈ 0.299 µM) | 2 (≈ 1.19 µM) | 1 (≈ 0.597 µM) | 3.28 | 75 | 0.134 | 450 | 30 | 19
6 | CCCCCCCCCCC(=O)NCCC[C@@H]1NC(=O)CNC(=O)[C@@H](NC(=O)[C@H](CC(=O)O)NC(=O)[C@H](CC(N)=O)NC(=O)[C@H](Cc2c[nH]c3ccccc23)NC(=O)CCCCCCCCCC)[C@@H](C)OC(=O)[C@H](CC(=O)c2ccccc2N)NC(=O)[C@H]([C@H](C)CC(=O)O)NC(=O)[C@@H](CO)NC(=O)CNC(=O)[C@H](CC(=O)O)NC(=O)[C@@H](C)NC(=O)[C@H](CC(=O)O)NC1=O [Compound 17] | 17 | 14 | 1 (≈ 0.555 µM) | 4 (≈ 2.22 µM) | 4 (≈ 2.22 µM) | 8 (≈ 4.44 µM) | 8 (≈ 4.44 µM) | 0.25 (≈ 0.139 µM) | 0.125 (≈ 0.0693 µM) | 8 (≈ 4.44 µM) | 8 (≈ 4.44 µM) | > 35 | > 200 | 2.85 | 94 | 20 | 13
